Consider 1 molecule from patent publication US7276531B2, “G-lactam derivatives as prostaglandin agonists” (Applied Research Systems ARS Holding N.V., priority 2003, dated 2007).

Assay [1] deals with Dextran Sodium Sulfate-induced colitis. Put plainly: In vivo inhibition of Dextran Sodium Sulfate-induced colitis. The settings on record: 0.1 mg/kg p.o. daily at days 3, 4, 5 and 6, DSS 4% mice. From the text: The anti-inflammatory activity of compounds of the invention in colitis can be assayed as follows.
Within 6-10 days after ingesting Dextran Sodium Sulfate (DSS) mice show sign of diarrhea, rectal bleeding and weight loss and colonic mucosal lesions include multiple erosion, ulceration, and marked inflammatory cell infiltration.
Ulcerative colitis (UC) was induced in female mice (Balb/c, 20-22 g, Elevage Janvier) by Dextran Sodium Sulfate (DSS 4%) administered in drinking water. The mice had free access to DSS during 5 days.
The compounds of the invention were solubilized in […] and administered by gavage at days 3, 4, 5 and 6 after the induction of the UC.
The “treated group” wherein the animals have free access to DDS and are treated each day with compounds of the invention.
The “Dextran 4%” group wherein the animals have free access to DDS 4% and 0.5% CMC/O0.25% tween (vehicle) and are not treated.
• The body weight was determined daily. • The severity of the UC was assessed by a clinical score estimating the constituency of the stool (0=firm, 1=loose, 2=diarrhea) and the presence of blood (0=no blood, 1=occult blood, 2=gross rectal bleeding). • Seven days after the induction of the disease, the animals were sacrificed. The length and the weight of the colon were determined and the ratio Length/Weight/100 g body weight was calculated.
The percentages of inhibition of weight loss, of clinical scores and of increase in the ratio colon length/weight, are calculated as follows: % inhibition=(1−(“value for treated group”−“value for control group”/”value for Dextran 4% group”−“value for control group))*100.
The percentages of inhibition are calculated for each days 5, 6 and 7 for each parameter.

For assay [2], the system named is methacholine-induced bronchoconstriction. In words: In vivo inhibition of guinea pig broncho-constriction (methacholine-induced). The settings on record: Cavia porcellus, IT (intra-tracheal) route, read-out: calculated effective dose (ED50), bronchoconstriction. From the text:
The activity of compounds of the invention in dilation of bronchiolar muscles, may be tested in different models. Guinea pig pulmonary-cholinergic in vivo model is generally used to test the materials for the treatments of asthma in human (Fleisch et al., 1985) Compounds of the invention can be tested in this methacholine-induced bronchomuscle constriction model as described below.
Groups of 3 Duncan Hartley derived male or female guinea pigs weighing 250±50 g are anesthetized with pentobarbital sodium (50 mg/kg i.p., plus an additional 15 mg/kg i.p. if required) and succinylcholine chloride (2 mg/animal i.p.) is subsequently administered to prevent spontaneous respiration. Body temperature is maintained at 37° to 38° C.
The trachea is cannulated and the guinea pig is ventilated with a Harvard rodent respirator in a closed system. Tracheal pressure is recorded through a side-arm of the cannula connected to a P23ID Statham transducer. […] Mean arterial pressure (BP) is monitored from a cannulated carotid artery, and heart rate (HR) is obtained from chest electrodes arranged for lead II. […]
Compounds of the invention are also tested via intra-tracheal (IT) route of administration. […] Tracheal pressure (ITP), blood pressure and heart rate are measured immediately as indicated in the material and methods sections. […]

Assay [3] concerns mature mouse ovulation induction model. In words: In vivo ovulation assay (mature mouse ovulation induction model). On the procedure:
Ovulation induction activity of compounds of the invention was tested in a mature mouse ovulation induction model.
Mature 10-week-old CD-mice were used. Reagents were prepared as follows: PMSG (pregnant mare serum gonadotropin) (Calbiochem, cat #367222) and hCG (Serono) are diluted in PBS. PGE2 (Cayman, Ann Arbor Mich.) was dissolved in ethanol and diluted with 0.154 M […] Buffer (pH 8.0) to final concentration of ethanol of less than 3 percent. A compound of the invention (based on solubility) was pre-dissolved in ethanol, DMSO or other reagents. The compound of the invention was then diluted with saline or other diluents such as PBS or NP3S (5% N-methyl-pyrrolidinone/30% PEG400/25% PEG200/20% Propylene Glycol in saline). PMSG stimulates ovarian follicular development. After PMSG stimulation, the mature follicules can be stimulated to rupture and release oocytes by an ovulation trigger, such as hCG or a compound of the invention.
The following test protocol is employed for the test animals (typically 5 animals per test group). • Day 1: Inject 5 IU PMSG in 200 μl PBS (i.p. 15:00 PM) • Day 2: No administration • Day 3: Injection of ovulation trigger hCG (i.p.) or hCG replacement (PGE2 or compound of the invention, s.c., i.v. or oral route), 15:00 PM • Day 4: Eighteen hours after injections of the ovulation triggers, animals were sacrificed by CO2 asphyxiation and abdominal cavities were opened using fine scissors and forceps. Uterus, oviducts and ovaries were collected and placed in pre-labeled dishes containing phosphate buffered saline (PBS). The collected tissues were transferred to the laboratory and intact oviduct carefully dissected out from uterus and ovary under the dissection microscope. The dissected oviducts were placed on the glass microscopic slide and covered with another slide. Two slides were taped on two edges. The numbers of ovulated ova in the oviducts were counted using upright microscope with 4× objective and recorded. […]

As usually defined, the ED50 is the midpoint of the dose-response relation. Regarding `CCCC/C(C)=C/C=C\[C@H]1CCC(=O)N1CCc1ccc(C(=O)O)cc1` [Example 3, 4-(2-{(2R)-2-[(1Z,3E)-4-methylocta-1,3-dienyl]-5-oxopyrrolidin-1-yl}ethyl)benzoic acid], in assay [1], the “improved clinical score, increase compared to non-treated animals” value was found to be 40%; the “increased colon weight/length, increase compared to non-treated animals” value came out at 36%; the “inhibition of loss of body-weight compared to non-treated animals” value is given as 39%. In addition, the ED50 in assay [2] was 0.2 mg/kg. Besides, the ED50 in assay [3] (Mus musculus, po, read-out: calculated ED50 (dose of drug which produces 50% of its effect), ovulation, p.o. administration route, mice) was 1 mg/kg. In addition, in assay [3] (oral administration, 20 mg/kg, mature mice), the “number of ova released (average)” value was 20.
